Measurements reported in US9833433B1, “Compositions, methods of use, and methods of treatment” (priority 2013, dated 2017).

Experiments:
[1] = system: COX-2; experiment: Hippocampal COX-2 expression in mice (immunoblot); type: in vivo
[2] = system: PGE2; experiment: PGE2 assay in hippocampal tissue (enzyme immunoassay); type: in vivo, mice; conditions: 10 mg/kg; detected 4 hrs after injection
Source text: PGE2 in hippocampal tissue was detected using PGE2 enzyme immunoassay kit (Cayman Chemical, Ann Arbor, Mich.) according to the procedure described by the manufacturer (Zhang and Chen, 2008).

[3] = system: hippocampal LTD; experiment: Hippocampal LTD induced by low-frequency stimulation at CA3-CA1 synapses; type: in vivo; conditions: single injection 10 mg/kg i.p.; LTD recorded 24 hrs later; WT mice P12 to P17
Source text: Field EPSP (fEPSP) recordings both at CA3-CA1 and perforant path synapses in response to stimuli at a frequency of 0.05 Hz were made using an Axoclamp-2B patch-clamp amplifier (Molecular Devices, CA) in bridge mode. Recording pipettes were pulled from borosilicate glass with a micropipette puller (Sutter Instrument), filled with artificial ACSF (2-4 MΩ). Hippocampal LTP at CA3-CA1 and perforant path synapses was induced by a theta-burst stimulation (TBS), consisting of a series of 10 bursts of 5 stimuli at 100 Hz (200 ms interburst interval, which was repeated three time (Fan et al., 2010; Hoffman et al., 2007; Chen et al., 2012). The input-output function was tested before recording of LTP, and the baseline stimulation strength was set to provide fEPSP with an amplitude of ˜30% from the subthreshold maximum derived from the input-output function. Hippocampal LTD was induced by low-frequency stimulation (900 stimuli at 1 Hz for 15 min) at CA3-CA1 synapses.

[4] = system: fear memory; experiment: Fear conditioning test (contextual memory); type: in vivo, mice; conditions: 10 mg/kg once a day for 7 days; freezing 24 hrs after last injection
Procedure: (§1) The classic Morris water maze and fear conditioning tests were performed to determine spatial and fear memory as described previously (Chen et al., 2012). The ‘open field’ test was conducted to detect the locomotor activity and the bar test was used to detect catalepsy (Egashira et al., 2007).
Hippocampus-dependent contextual memory was determined using a fear-conditioning working-station (Coulbourn Instruments, Allentown, Pa.) and a one-trial protocol as describe previously (Chen et al., 2006a; 2006b). Mice were individually put into the shock chamber and allowed to freely explore the environment for 150 seconds. Immediately after this, a tone at 90 dB and 2,800 Hz (CS) was delivered for 30 seconds, and at the last 2 seconds a foot shock at 0.8 mA was delivered to the mice for 2 seconds (US). After the pairing of CS/US, mice were allowed to stay in the chamber for another 30 seconds and then returned to their home cages. Then the animals started receiving vehicle, Δ^9-THC (10 mg/kg), NS398 (10 mg/kg), Δ^9-THC+NS398 once a day for 7 days. Fear memory test was conducted 24 hours after the cessation of the last injections. For contextual conditioning, mice were individually put back into the chamber where they received the shock and the freezing response was recorded for 5 minutes with a sampling method at an interval of 5 seconds. […]

[5] = system: locomotor activity; experiment: Open field test (locomotor activity); type: in vivo, mice; conditions: Δ^9-THC 10 mg/kg; 30 min open field
Procedure: as §1
The ‘open field’ test was conducted using an automatic-recording open-field working station (MED Associates, Georgia, Vt.). During the test, mice were individually released into the center of the box immediately after injections of Δ^9-THC, NS398, Δ^9-THC+NS398, Celebrex or Celebrex+Δ^9-THC. Celebrex and NS398 were injected 30 min prior to Δ^9-THC injection and allowed to explore the field for 30 min and their behaviors were recorded by a photobeam-scanning system and a video camera simultaneously. Data were analyzed automatically by the computer-sampling system.

[6] = system: dendritic spines of CA1 pyramidal neurons; experiment: Two-photon imaging of dendritic spines in CA1 pyramidal neurons; type: in vivo, mice; conditions: repeated Δ^9-THC exposure; Thy1-GFP mice
Procedure: Morphology of dendritic spines in hippocampal CA1 pyramidal neurons was determined in GFP-expressing transgenic mice using a two-photon laser scanning microscope as described previously (Chen et al., 2012). Shape, size, and density of spines were measured from the three-dimensional reconstructions using NeuronStudio Version 0.9.92.
Morphology of dendritic spines in hippocampal CA1 pyramidal neurons was determined in GFP-expressing transgenic mice treated with vehicle, Δ^9-THC or NS398+Δ^9-THC using a two-photon laser scanning microscope (Chameleon hands-free ultrafast Ti: sapphire laser with an Olympus scan head) with Olympus FLUOVIEW 300 software (Chen et al., 2012). Shape (thin, mushroom, or stubby), size, density, and volume of spines were measured from the three-dimensional reconstructions (Z stacks: 1μ step for the whole cell and 0.1μ step for a segment of dendrites) using AutoQuant X2 or 3D deconvolution plugin of Image J (http://bigwww.epfl.ch/algorithms/deconvolutionlab) and NeuronStudio (for 3D reconstruction of imaged dendritic spines, Version 0.9.92; http://research.mssm.edu/cnic/tools-ns.html, CNIC, Mount Sinai School of Medicine). […] The following parameters were used in analyzing and quantifying spines using NeuronStudio: Voxel size was set as 0.029*0.029*0.3 μm. […]

[7] = system: synaptophysin (Syn); experiment: Hippocampal synaptophysin expression (immunoblot); type: in vivo, mice; conditions: Δ^9-THC for 7 days
[8] = system: CREB; experiment: Phosphorylation of hippocampal CREB; conditions: WT mice; Δ^9-THC for 7 days
[9] = system: NF-κB; experiment: NF-κB phosphorylation in NG108-15 cells
[10] = system: EAAT1, EAAT2, and EAAT3; experiment: Hippocampal expression of glutamate transporters (immunoblot); conditions: Δ^9-THC 10 mg/kg once a day for 7 days

CCCCCc1cc(O)c2c(c1)OC(C)(C)[C@@H]1CCC(C)=C[C@@H]21 [Δ^9-THC, Δ^9-tetrahydrocannabinol]
hippocampal COX-2 expression after cannabinoid injection ([1]; single i.p. injection, CP55,940 10 mg/kg, detected 4 hrs): dose- and time-dependent induction of COX-2 in the brain
hippocampal COX-2 expression after repeated injections ([1]; Δ^9-THC 10 mg/kg i.p. once daily for 7 consecutive days, analyzed 24 hrs after last injection): steadily elevated
hippocampal PGE2 production after cannabinoid injection [2]: elevated production of prostaglandin E2 (PGE2)
hippocampal LTD after single exposure [3]: impaired
fear memory after repeated Δ^9-THC [4]: impaired fear memory
locomotor depressive effect [5]: cataleptic and locomotor depressive effects
density of dendritic spines [6]: significantly reduced density of dendritic spines of CA1 pyramidal neurons
synaptophysin expression [7]: did not alter expression of synaptophysin (Syn)
phosphorylation of hippocampal CREB [8]: reduced expression of glutamate receptor subunits and phosphorylation of CREB
NF-κB phosphorylation [9]: induced NF-κB phosphorylation
expression of glutamate transporters [10]: down-regulated
